Patent publication US5486525A, “Platelet activating factor antagonists: imidazopyridine indoles” (priority 1994, dated 1996)
Counter-ions that a name gives are not always drawn.

The molecules below were run against T1, PAF receptor (Oryctolagus cuniculus, UniProt G1TEI7) (assay: PAF receptor binding assay: inhibition of specific [^3 H]C18 -PAF binding to rabbit platelet membranes). Settings: not given.
T1 construct: platelet membranes were prepared by centrifugation and washing; tissue Pel-Freez (Rogers, AR); host or cells: rabbit blood platelets (membranes prepared from citrated whole rabbit blood)
T1 sequence (G1TEI7 1-342): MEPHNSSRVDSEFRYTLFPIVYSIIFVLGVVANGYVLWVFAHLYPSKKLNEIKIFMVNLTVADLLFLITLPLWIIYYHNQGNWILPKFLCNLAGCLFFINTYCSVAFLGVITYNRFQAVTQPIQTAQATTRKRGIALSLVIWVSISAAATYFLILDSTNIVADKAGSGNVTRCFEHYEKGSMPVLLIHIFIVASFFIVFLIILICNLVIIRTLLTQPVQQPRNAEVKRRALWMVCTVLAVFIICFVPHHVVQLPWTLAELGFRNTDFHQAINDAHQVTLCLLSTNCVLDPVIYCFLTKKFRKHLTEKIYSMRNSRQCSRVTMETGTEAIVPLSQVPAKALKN

In order of rising Ki:
1. C#Cc1cccc2c1c(C(=O)c1ccc(Cn3c(C)nc4cnccc43)cc1)cn2C(=O)N(C)C [Example 107, 1-N,N-Dimethylcarbamoyl-4-ethynyl-3-{4-[(1H-2-methylimidazo[4.5-c]pyrid-1-yl)methyl]benzoyl}indole]  0.6 nM
2. Cc1cccc2c1c(C(=O)c1ccc(Cn3c(C)nc4cnccc43)cc1)cn2C(=O)N(C)C [Example 122, 1-N,N-Dimethylcarbamoyl-4-methyl-3-(4-[(1H-2-methylimidazo[4.5-c]pyrid-1-yl)methyl]benzoyl}indole]  0.8 nM
3. CCc1cccc2c1c(C(=O)c1ccc(Cn3c(C)nc4cnccc43)cc1)cn2C(=O)N(C)C [Example 143]  0.9 nM
4. COC(=O)c1cccc2c1c(C(=O)c1ccc(Cn3c(C)nc4cnccc43)cc1)cn2CC(=O)C(C)(C)C [Example 135, 1-(1-Pinacolyl)4-methoxycarbonyl-3-{4-[(1H-2-methylimidazo[4.5-c]pyrid-1-yl)methyl]benzoyl}indole]  1.3 nM
5. Cc1nc2cnccc2n1Cc1ccc(C(=O)c2cn(C(=O)N(C)C)c3cc(-c4ccc(F)cc4)ccc23)cc1 [Example 4, 1-N,N-Dimethylcarbamoyl-6-(4-fluorophenyl)-3-{4-[(1H-2-methylimidazo[4.5-c]pyrid-1-yl)methyl]benzoyl}indole]  2.3 nM
6. Cc1nc2cnccc2n1Cc1ccc(C(=O)c2cn(C(=O)N(C)C)c3ccccc23)cc1 [Example 14, 1-N,N-Dimethylcarbamoyl-3-{4-[(1H-2-methylimidazo[4.5-c]pyrid-1-yl)methyl]benzoyl}indole]  5 nM
7. COC(=O)c1cccc2c1c(C(=O)c1ccc(Cn3c(C)nc4cnccc43)c(F)c1)cn2C(=O)N(C)C [Example 96, 1-N,N-Dimethylcarbamoyl-4-methoxycarbonyl-3-{3-fluoro-4-[(1H-2-methylimidazo[4,5-c]pyrid-1-yl)methyl]benzoyl}indole]  7.7 nM
8. Cc1nc2cnccc2n1Cc1ccc(C(=O)c2cn(C(=O)N(C)C)c3cccc(Br)c23)cc1 [Example 102, 1-N,N-Dimethylcarbamoyl-4-bromo-3-{4-[(1H-2-methylimidazo[4.5-c]pyrid-1-yl)methyl]benzoyl}indole]  10 nM
9. COC(=O)c1cccc2c1c(C(=O)c1ccc(Cn3c(C(F)(F)F)nc4ccccc43)cc1)cn2C(=O)N(C)C [Example 162, 1-N,N-Dimethylcarbamoyl-4-methoxycarbonyl-3-{4-[(1H-2-(trifluoromethyl)benzimidazolyl)methyl]benzoyl}indole]  14 nM
10. COC(=O)c1cccc2c1c(C(=O)c1ccc(C(C)n3c(C)nc4cnccc43)cc1)cn2C(=O)N(C)C (stereo not drawn) [Example 156, 1-N,N-Dimethylcarbamoyl-4-methoxycarbonyl-3-{4-[1-(1H-2-methylimidazo[4.5-c]pyrid-1-yl)eth-1-yl]benzoyl}indole]  19 nM
11. CCc1nc2cnccc2n1Cc1ccc(C(=O)c2cn(C(=O)N(C)C)c3ccccc23)cc1 [Example 33]  29 nM
12. Cc1nc2cnccc2n1Cc1ccc(C(=O)c2cn(C(=O)N(C)C)c3cccc(C#N)c23)cc1 [Example 150, 1-N,N-Dimethylcarbamoyl-4-cyano-3-{4-[(1H-2-methylimidazo[4.5-c]pyrid-1-yl)methyl]benzoyl}indole hydrochloride]  40 nM
13. CC(C)c1nc2cnccc2n1Cc1ccc(C(=O)c2cn(C(=O)N(C)C)c3ccccc23)cc1 [Example 31]  44 nM
14. Cc1nc2ccccc2n1Cc1ccc(C(=O)c2cn(C(=O)N(C)C)c3cc(-c4ccc(F)cc4)ccc23)cc1 [Example 2, 1-N,N-Dimethylcarbamoyl-6-(4-fluorophenyl)-3-{4-[(1H-2-methylbenzimidazolyl)methyl]benzoyl}indole]  56 nM
15. Cc1nc2ncccc2n1Cc1ccc(C(=O)c2cn(C(=O)N(C)C)c3ccccc23)cc1 [Example 28, 1-N,N-Dimethylcarbamoyl-3-{4-[(1H-2-methylimidazo[4.5-b]pyrid-1-yl)methyl]benzoyl}indole]  87 nM
16. Cc1nc2cnccc2n1Cc1cccc(C(=O)c2cn(C(=O)N(C)C)c3cc(-c4ccc(F)cc4)ccc23)c1 [Example 12, 1-N,N-Dimethylcarbamoyl-6-(4-fluorophenyl)-3-{3-[(1H-2-methylimidazo[4.5-c]pyrid-1-yl)methyl]benzoyl}indole]  140 nM
17. Cc1nc2cnccc2n1-c1ccc(C(=O)c2cn(C(=O)N(C)C)c3ccccc23)cc1 [Example 22, 1-N,N-Dimethylcarbamoyl-3-{4-[(1H-2-methylimidazo[4.5-c]pyrid-1-yl)]benzoyl}indole]  146 nM
18. Cc1nc2cnccc2n1Cc1ccc(C(=O)c2cn(C(=O)N(C)C)c3cccc(C(=O)N(C)C)c23)cc1 [Example 112, 1,4-di-N,N-Dimethylcarbamoyl-3-{4-[(1H-2-methylimidazo[4.5-c]pyrid-1-yl)methyl]benzoyl}indole]  150 nM
19. Cc1nc2cnccc2n1-c1ccc(C(=O)c2cn(C(=O)N(C)C)c3cc(-c4ccc(F)cc4)ccc23)cc1 [Example 10, 1-N,N-Dimethylcarbamoyl-6-(4-fluorophenyl)-3-[4-(1H-2-methylimidazo[4.5-c]pyrid-1-yl)benzoyl]indole]  258 nM
20. Cc1nc2cnccc2n1Cc1cccc(C(=O)c2cn(C(=O)N(C)C)c3ccccc23)c1 [Example 18, 1-N,N-Dimethylcarbamoyl-3-{3-[(1H-2-methylimidazo[4.5-c]pyrid-1-yl)methyl]benzoyl}indole]  323 nM
21. CN(C)C(=O)n1cc(C(=O)c2ccc(Cn3cnc4cnccc43)cc2)c2ccccc21 [Example 30]  342 nM
22. COC(=O)c1cccc2c1c(C(=O)c1ccc(Cn3c(C)nc4cc(Cl)c(Cl)cc43)cc1)cn2C(=O)N(C)C [Example 167, 1-N,N-Dimethylcarbamoyl-4-methoxycarbonyl-3-{4-[(1H-2-methyl-5,6-dichlorobenzimidazolyl)methyl]benzoyl}indole]  450 nM
23. CN(C)C(=O)n1cc(C(=O)c2ccc(Cn3c(C(F)(F)F)nc4cnccc43)cc2)c2ccccc21 [Example 29]  494 nM
24. Cc1nc2ccncc2n1Cc1ccc(C(=O)c2cn(C(=O)N(C)C)c3cc(-c4ccc(F)cc4)ccc23)cc1 [Example 7, 1-N,N-Dimethylcarbamoyl-6-(4-fluorophenyl)-3-{4-[(3H-2-methylimidazo[4.5-c]pyrid-3-yl)methyl]benzoyl}indole]  700 nM

In order of falling inhibition at 100 µM:
1. Cc1nc2ccncc2n1Cc1cccc(C(=O)c2cn(C(=O)N(C)C)c3ccccc23)c1 [Example 20, 1-N,N-Dimethylcarbamoyl-3-{3-[(3H-2-methylimidazo[4.5-c]pyrid-3-yl)methyl]benzoyl}indole]  26%
2. Cc1nc2ccn(Cc3ccc(C(=O)c4cn(C(=O)N(C)C)c5ccccc45)cc3)cc-2n1 [Example 16, 1-N,N-Dimethylcarbamoyl-3-[4-(5H-2-methylimidazo[4.5-c]pyrid-5-ylmethyl)benzoyl]indole]  18%

In order of rising inhibition at 1 µM:
1. Cc1nc2cnccc2n1CC(=O)c1cn(C(=O)N(C)C)c2cc(-c3ccc(F)cc3)ccc12 [Example 24, 1-N,N-Dimethylcarbamoyl-6-(4-fluorophenyl)-3-[(1H-2-methylimidazo[4.5-c]pyrid-1-yl)methylcarbonyl]indole]  6%
2. Cc1nc2cnccc2n1CC(=O)c1cn(C(=O)N(C)C)c2ccccc12 [Example 26, 1-N,N-Dimethylcarbamoyl-3-[(1H-2-methylimidazo[4.5-c]pyrid-1-yl)methylcarbonyl]indole]  7%
3. CN(C)C(=O)n1cc(C(=O)c2ccc(Cn3c(-c4ccccc4)nc4cnccc43)cc2)c2ccccc21 [Example 32]  10%

Same assay, conditions: Table 1; @ 1.0 μM; read-out: % Inhibition

With `Cc1nc2ccncc2n1CC(=O)c1cn(C(=O)N(C)C)c2ccccc12` [Example 25, 1-N,N-Dimethylcarbamoyl-3-[(3H-2-methylimidazo[4.5-c]pyrid-3-yl)methylcarbonyl]indole] the inhibition at 1 µM was 14%.

Same assay, conditions: Table 1; rabbit platelet membranes, 0.6 nM [^3 H]C18 -PAF, 60 minutes at room temperature; Ki by Cheng and Prusoff; read-out: Ki

In order of falling Ki:
1. Cc1nc2cnccc2n1Cc1cccc(C(=O)c2c[nH]c3ccccc23)c1 [Example 17, 3-{3-[(1H-2-Methylimidazo[4.5-c]pyrid-1-yl)methyl]benzoyl}indole]  422 nM
2. Cc1nc2cnccc2n1Cc1ccc(C(=O)c2c[nH]c3ccccc23)cc1 [Example 13, 3-{4-[(1H-2-Methylimidazo[4.5-c]pyrid-1-yl)methyl]benzoyl}indole]  150 nM
3. Cc1nc2cnccc2n1CCCN(C)CC(=O)c1cn(C(=O)N(C)C)c2cc(-c3ccc(F)cc3)ccc12 [Example 95, 6-(4-Fluorophenyl)-3-{N-[3-(1H-2-methylimidazo[4.5-c]pyrid-1-yl)propyl]sarcosyl}indole-1-carboxylic acid dimethyl amide]  130 nM
4. Cc1nc2cnccc2n1Cc1cccc(C(=O)c2c[nH]c3cc(-c4ccc(F)cc4)ccc23)c1 [Example 11, 6-(4-Fluorophenyl)-3-{3-[(1H-2-methylimidazo[4.5-c]pyrid-1-yl)methyl]benzoyl}indole]  86 nM
5. COC(=O)c1cccc2c1c(C(=O)CCCCCn1c(C)nc3cnccc31)cn2C(=O)N(C)C [Example 126]  62 nM
6. Cc1nc2cnccc2n1-c1ccc(C(=O)c2c[nH]c3cc(-c4ccc(F)cc4)ccc23)cc1 [Example 9, 6-(4-Fluorophenyl)-3-[4-(1H-2-methylimidazo[4.5-c]pyrid-1-yl)benzoyl]indole]  60 nM
7. COC(=O)c1cccc2c1c(S(=O)(=O)c1ccc(Cn3c(C)nc4cnccc43)cc1)cn2C(=O)N(C)C [Example 141, 1-N,N-Dimethylcarbamoyl-4-methoxycarbonyl-3-{4-[(1H-2-methylimidazo[4.5-c]pyrid-1-yl)methyl]phenylsulfonyl}indole]  20 nM
8. 1-N,N-Dimethylcarbamoyl-4-chloro-3-{4-[(1H-2-methyl-5- and 6-chlorobenzimidazoyl)methyl]benzoyl}indole [Example 159]  9 nM
9. COC(=O)c1ccc(C(=O)OC)c2c(C(=O)c3ccc(Cn4c(C)nc5cnccc54)cc3)c[nH]c12 [Example 90, 4,7-Dimethoxycarbonyl-3-{4-[(1H-2-methylimidazo[4,5-c]pyrid-1-yl)methyl]benzoyl}indole]  2.9 nM
